Laboratory results as given in ChEMBL document CHEMBL1201862, “PubChem BioAssay data set” (2004).
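Values below derive from 48-hour exposures of cells grown in 96-well plates, with endpoints linearly interpolated between the two concentrations bracketing the appropriate inhibition level. GI50: concentration for 50% inhibition of growth.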 The source made the active and inactive calls. Cut-off read from the data, not from the text of the source: active = GI50 up to about 1.1 µM and inactive = higher.

Tests used:
Assay in all cases: growth of human tumour cells (NCI), 48 h
[1] = test system: DLD-1
[2] = test system: DMS-114
[3] = test system: KM-20L2
[4] = test system: XF498
[5] = test system: LXFL 529
[6] = test system: DMS-273
[7] = test system: HOP-18
[8] = test system: M19-MEL
[9] = test system: RXF 631

Measured: GI50

C/C(O)=C1\CC2CN3CCc4c([nH]c5ccccc45)C3CC2CC1=O (stereo not given)
inactive: [1] 40.6 µM | [2] 46.2 µM | [3] 92 µM | [4] 32 µM | [5] 34.4 µM | [6] 57.4 µM | [7] 52.8 µM

O=C(NC(=O)c1cc2cc(Br)cc(Br)c2oc1=O)Oc1ccccc1
inactive: [1] > 100 µM | [2] 65.2 µM | [3] > 100 µM | [8] > 100 µM | [4] 37.4 µM | [5] > 100 µM | [6] > 100 µM | [7] > 100 µM

ClCCNCCNCCCl.ClCCNCCNCCCl.[O-][Cl+3]([O-])([O-])O
inactive: [1] 18.5 µM | [2] 23.9 µM | [3] 67.3 µM | [8] 27.2 µM | [5] 17.2 µM | [6] 27.5 µM | [7] 24.3 µM

COC(=O)[C@H]1COC(=S)N1C(=O)[C@@H](C)[C@H](O)C(C)C
inactive: [1] > 100 µM | [2] 84.7 µM | [9] > 100 µM | [3] > 100 µM | [8] > 100 µM | [4] > 100 µM | [5] > 100 µM | [6] > 100 µM | [7] > 100 µM

COc1ccc(OC)c(CCc2cc(OC)c(OC)cc2C)c1
inactive: [1] 4.7 µM | [2] 5.65 µM | [3] 49.8 µM | [8] 5.51 µM | [4] 77.6 µM | [5] 30.1 µM

CC(C)(C)N/N=C(\C(=O)Nc1nnc(S)[nH]1)C1C(=O)Nc2ccccc2[S+]1[O-] (stereo not given)
inactive: [1] > 100 µM | [2] > 100 µM | [9] > 100 µM | [3] > 100 µM | [8] > 100 µM | [4] > 100 µM | [5] > 100 µM | [6] > 100 µM | [7] > 100 µM

C[C@]12CCc3nonc3C1CC[C@@H]1C2CC[C@]2(C)NC(=O)CCC12 (stereo not given in full)
inactive: [9] > 100 µM | [3] > 100 µM | [8] > 100 µM | [4] > 100 µM | [5] > 100 µM | [6] > 100 µM | [7] > 100 µM

O=C1c2ccccc2-c2ccccc2C(=O)C1(Br)Br
inactive: [1] 6.75 µM | [2] 15.2 µM | [3] 16.9 µM | [8] 8.69 µM | [5] 7.96 µM | [6] 15.6 µM | [7] 13.4 µM
